In patent publication US9682976B2, “Protein kinase C inhibitors and uses thereof” (Rigel Pharmaceuticals, Inc., priority 2012, dated 2017):

Each compound was assayed on PKC mediated IL-2 production (assay: IL-2 ELISA, human primary T cell, anti CD3+CD28+). Settings: Homo sapiens, T-cell, 24 h, human primary T cells stimulated with αCD3 and αCD28, 24 hours.
Type: cell-based
In short: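 IL-2 was quantified by ELISA in 24 h supernatants from primary human T cells given a 1 h compound pre-treatment at 37° C. These cells had been expanded from blood mononuclear cells on αCD3/αCD28 with IL-2, and the IL-2 was removed by washing. Stimulation used plate-bound αCD3 ([…]) plus αCD28 (5 μg/ml); the counter assay used PMA (0.5 ng/ml) with ionomycin (0.1 uM) instead.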
`Cn1nnn(-c2cc(Nc3ncc(F)c(NC4CCN5C(CCC5(C)C)C4)n3)c(F)cc2C2CC2)c1=O` (single isomer, unassigned) [Compound 34, 1-(5-(5-fluoro-4-(octahydro-3,3-dimethylindolizin-7-ylamino)pyrimidin-2-ylamino)-2-cyclopropyl-4-fluorophenyl)-4-methyl-1H-tetrazol-5(4H)-one] was tested, and the EC50 was 1000 to 10000 nM. `CC1(C)C[C@H](Nc2nc(Nc3ccc(Cl)c(-n4nnnc4C4CC4)c3)ncc2F)C[C@@H]2CCCN21` [Compound 145, N2-(4-chloro-3-(5-cyclopropyl-1H-tetrazol-1-yl)phenyl)-N4-((7R,8aS)-5,5-dimethyloctahydroindolizin-7-yl)-5-fluoropyrimidine-2,4-diamine] showed an EC50 of less than 100 nM. Compound `C[C@H](CO)COc1cc(F)c(Nc2ncc(F)c(N[C@@H]3C[C@@H]4CCCN4C(C)(C)C3)n2)cc1-n1nnn(C)c1=O` [Compound 222, 1-(5-((4-(((7R,8aS)-5,5-dimethyloctahydroindolizin-7-yl)amino)-5-fluoropyrimidin-2-yl)amino)-4-fluoro-2-((R)-3-hydroxy-2-methylpropoxy)phenyl)-4-methyl-1,4-dihydro-5H-tetrazol-5-one] has an EC50 of 100 to 500 nM. `CCc1cc(F)c(Nc2ncc(F)c(N[C@@H]3C[C@@H]4CCCN4C(C)(C)C3)n2)cc1-n1nnn(C)c1=O` [Compound 95, 1-(5-(4-((7R,8aS)-octahydro-5,5-dimethylindolizin-7-ylamino)-5-fluoropyrimidin-2-ylamino)-2-ethyl-4-fluorophenyl)-4-methyl-1H-tetrazol-5(4H)-one] was tested, and the EC50 was less than 100 nM. Compound `CC(=O)O[C@H]1[C@H](OC(C)=O)C(Oc2ccc(Nc3ncc(F)c(N[C@@H]4C[C@@H]5CCCN5C(C)(C)C4)n3)cc2C#N)OC[C@H]1OC(C)=O` (stereo partly drawn) [Compound 197, (3S,4R,5R)-2-(2-cyano-4-((4-(((7R,8aS)-5,5-dimethyloctahydroindolizin-7-yl)amino)-5-fluoropyrimidin-2-yl)amino)phenoxy)tetrahydro-2H-pyran-3,4,5-triyl triacetate] has an EC50 of 100 to 500 nM. With `Cn1nnn(-c2cc(Nc3ncc(C#N)c(N[C@@H]4C[C@@H]5CCCN5C(C)(C)C4)n3)c(F)cc2O[C@H]2CCOC2)c1=O` [Compound 112] the EC50 was 100 to 500 nM. `COc1cc(Nc2ncc(Cl)c(N[C@@H]3C[C@@H]4CCCN4C(C)(C)C3)n2)cc(OC)c1` [Compound 162, 5-chloro-N2-(3,5-dimethoxyphenyl)-N4-((7R,8aS)-5,5-dimethyloctahydroindolizin-7-yl)pyrimidine-2,4-diamine] gave an EC50 of 100 to 500 nM. `CC1(C)CC(Nc2nc(Nc3ccc(OC4CCOCC4)c(C#N)c3)ncc2F)CC2CCCN21` (stereo not shown) [Compound 41, 5-(5-fluoro-4-(octahydro-5,5-dimethylindolizin-7-ylamino)pyrimidin-2-ylamino)-2-(tetrahydro-2H-pyran-4-yloxy)benzonitrile] was tested, and the EC50 was 100 to 500 nM. `[2H]C([2H])(O)C([2H])([2H])Oc1ccc(Nc2ncc(F)c(N[C@@H]3C[C@@H]4CCCN4C(C)(C)C3)n2)cc1OC` [Compound 217, 2-(4-((4-(((7R,8aS)-5,5-dimethyloctahydroindolizin-7-yl)amino)-5-fluoropyrimidin-2-yl)amino)-2-methoxyphenoxy)ethan-1,1,2,2-d4-1-ol] was tested, and the EC50 was greater than 10000 nM. `CC1(C)C[C@H](Nc2nc(Nc3ccc(N4CC5(COC5)C4)c(C#N)c3)ncc2F)C[C@@H]2CCCN21` [Compound 101, 5-(4-((7R,8aS)-5,5-dimethyloctahydroindolizin-7-ylamino)-5-fluoropyrimidin-2-ylamino)-2-(2-oxa-6-azaspiro[3.3]heptan-6-yl)benzonitrile] was tested, and the EC50 was 100 to 500 nM. For `CC1(C)Oc2ccc(Nc3ncc(F)c(N[C@@H]4C[C@@H]5CCCN5C(C)(C)C4)n3)cc2-n2c1nn(C1COC1)c2=O` [Compound 251, 5-fluoro-N2-(1H-2,4-dihydron-4,4-dimethyl-2-(oxetan-3-yl)[1,2,4]triazolo[3,4-c][1,4]benzoxazin-1-one-8-yl)-N4-((7R,8aS)-octahydro-5,5-dimethylindolizin-7-yl)pyrimidine-2,4-diamine], the EC50 was 1000 to 10000 nM. For `COCCOCCOc1cc(F)c(Nc2ncc(F)c(N[C@@H]3C[C@@H]4CCCN4C(C)(C)C3)n2)cc1-n1nnn(C)c1=O` [Compound 198, 1-(5-((4-(((7R,8aS)-5,5-dimethyloctahydroindolizin-7-yl)amino)-5-fluoropyrimidin-2-yl)amino)-4-fluoro-2-(2-(2-methoxyethoxy)ethoxy)phenyl)-4-methyl-1,4-dihydro-5H-tetrazol-5-one], the EC50 was 1000 to 10000 nM. `Cn1nnn(-c2cc(Nc3ncc(F)c(N[C@@H]4C[C@@H]5CCCN5C(C)(C)C4)n3)c(F)cc2OCC(N)=O)c1=O` [Compound 322, 2-(4-(4-((7R,8aS)-octahydro-5,5-dimethylindolizin-7-ylamino)-5-fluoropyrimidin-2-ylamino)-5-fluoro-2-(4,5-dihydro-4-methyl-5-oxotetrazol-1-yl)phenoxy)acetamide] was tested, and the EC50 was 100 to 500 nM. Compound `Cn1nnn(-c2cc(Nc3ncc(F)c(N[C@H]4C[C@@H]5C[C@@H](F)CN5C(C)(C)C4)n3)c(F)cc2C2CC2)c1=O` [Compound 65, 1-(5-(4-((2R,7S,8aR)-2-fluoro-octahydro-5,5-dimethylindolizin-7-ylamino)-5-fluoropyrimidin-2-ylamino)-2-cyclopropyl-4-fluorophenyl)-4-methyl-1H-tetrazol-5(4H)-one] has an EC50 of 1000 to 10000 nM. With `CN1C(=O)C(C)(C)Oc2ccc(Nc3ncc(F)c(N[C@@H]4C[C@@H]5CCCN5C(C)(C)C4)n3)cc21` [Compound 318] the EC50 was 500 to 1000 nM. Compound `CN1C(=O)COc2ccc(Nc3ncc(F)c(N[C@@H]4C[C@@H]5CCCN5C(C)(C)C4)n3)cc21` [Compound 315] has an EC50 of 1000 to 10000 nM. `COCCOCCOc1ccc(Nc2ncc(F)c(N[C@@H]3C[C@@H]4CCCN4C(C)(C)C3)n2)cc1-n1cnnn1` [Compound 207, N4-((7R,8aS)-5,5-dimethyloctahydroindolizin-7-yl)-5-fluoro-N2-(4-(2-(2-methoxyethoxy)ethoxy)-3-(1H-tetrazol-1-yl)phenyl)pyrimidine-2,4-diamine] was tested, and the EC50 was less than 100 nM. In the case of `CC1(C)C[C@H](Nc2nc(Nc3cc(F)cc(S(F)(F)(F)(F)F)c3)ncc2F)C[C@@H]2CCCN21` [Compound 72], the EC50 is reported as 500 to 1000 nM. In the case of `CNc1nnnn1-c1cc(Nc2ncc(F)c(N[C@@H]3C[C@@H]4CCCN4C(C)(C)C3)n2)c(F)cc1OC1COC1` [Compound 258, 5-fluoro-N2-(2-fluoro-5-(5-(methylamino)-1H-tetrazol-1-yl)-4-(oxetan-3-yloxy)phenyl)-N4-((7R,8aS)-octahydro-5,5-dimethylindolizin-7-yl)pyrimidine-2,4-diamine], the EC50 is reported as 1000 to 10000 nM. `CC1(C)C[C@H](Nc2nc(Nc3cc(C#N)c(C4CC4)cc3F)ncc2Cl)C[C@@H]2CCCN21` [Compound 181, 5-((5-chloro-4-(((7R,8aS)-5,5-dimethyloctahydroindolizin-7-yl)amino)pyrimidin-2-yl)amino)-2-cyclopropyl-4-fluorobenzonitrile] gave an EC50 of 100 to 500 nM. Compound `CC1(C)Oc2ccc(Nc3ncc(F)c(N[C@H]4C[C@H]5CCCN5C(C)(C)C4)n3)cc2-n2nnnc21` [Compound 102, N2-(4,4-dimethyl-4H-benzo[b]tetrazolo[1,5-d][1,4]oxazin-8-yl)-N4-((7S,8aR)-5,5-dimethyloctahydroindolizin-7-yl)-5-fluoropyrimidine-2,4-diamine] has an EC50 of 100 to 500 nM.

Same assay, conditions: T-cell, human primary T cells stimulated with αCD3 and αCD28, 24 hours
Work on `[2H]C([2H])(O)C([2H])([2H])Oc1cc(F)c(Nc2ncc(F)c(N[C@@H]3C[C@@H]4CCCN4C(C)(C)C3)n2)cc1-n1nnn(C)c1=O` [Compound 221, 1-(5-((4-(((7R,8aS)-5,5-dimethyloctahydroindolizin-7-yl)amino)-5-fluoropyrimidin-2-yl)amino)-4-fluoro-2-(2-hydroxyethoxy-1,1,2,2-d4)phenyl)-4-methyl-1,4-dihydro-5H-tetrazol-5-one] yielded an EC50 of less than 100 nM.

Same assay, conditions: human primary T cells stimulated with αCD3 and αCD28, 24 hours
For `CC1(C)Oc2ccc(Nc3ncc(F)c(N[C@H]4C[C@H]5CCCN5C(C)(C)C4)n3)cc2-n2nnnc21` [Compound 1, N2-(4,4-dimethyl-4H-benzo[b]tetrazolo[1,5-d][1,4]oxazin-8-yl)-5-fluoro-N4-(octahydro-5,5-dimethylindolizin-7-amine)pyrimidine-2,4-diamine], the EC50 was 100 to 500 nM. `CC(C)N1CCC(Oc2ccc(Nc3ncc(F)c(N[C@H]4C[C@@H]5CCCN5C(C)(C)C4)n3)cc2OC(F)F)CC1` (single isomer, unassigned) [Compound 9, (R/S, S/R, R/R, S/S)-N^2-(4-(1-isopropylpiperidin-4-yloxy)-3-(difluoromethoxy)phenyl)-5-fluoro-N^4-(octahydro-5,5-dimethylindolizin-7-yl)pyrimidine-2,4-diamine] showed an EC50 of 100 to 500 nM. `CC1(C)CC(Nc2nc(Nc3ccc(O[C@H]4CCOC4)c(C#N)c3)ncc2F)CC2CCCN21` (single isomer, unassigned) [Compound 62] showed an EC50 of 100 to 500 nM.
